{"source": "ChEMBL document CHEMBL4330132", "about": "“5-Keto-3-cyano-2,4-diaminothiophenes as selective maternal embryonic leucine zipper kinase inhibitors” (Bioorg Med Chem Lett, 2019)", "key": {"[1]": {"test_system": "Tyrosine-protein kinase ABL1 (Homo sapiens), P00519 [F317I]", "sequence (P00519 whole entry F317I, the tested form may be a part)": "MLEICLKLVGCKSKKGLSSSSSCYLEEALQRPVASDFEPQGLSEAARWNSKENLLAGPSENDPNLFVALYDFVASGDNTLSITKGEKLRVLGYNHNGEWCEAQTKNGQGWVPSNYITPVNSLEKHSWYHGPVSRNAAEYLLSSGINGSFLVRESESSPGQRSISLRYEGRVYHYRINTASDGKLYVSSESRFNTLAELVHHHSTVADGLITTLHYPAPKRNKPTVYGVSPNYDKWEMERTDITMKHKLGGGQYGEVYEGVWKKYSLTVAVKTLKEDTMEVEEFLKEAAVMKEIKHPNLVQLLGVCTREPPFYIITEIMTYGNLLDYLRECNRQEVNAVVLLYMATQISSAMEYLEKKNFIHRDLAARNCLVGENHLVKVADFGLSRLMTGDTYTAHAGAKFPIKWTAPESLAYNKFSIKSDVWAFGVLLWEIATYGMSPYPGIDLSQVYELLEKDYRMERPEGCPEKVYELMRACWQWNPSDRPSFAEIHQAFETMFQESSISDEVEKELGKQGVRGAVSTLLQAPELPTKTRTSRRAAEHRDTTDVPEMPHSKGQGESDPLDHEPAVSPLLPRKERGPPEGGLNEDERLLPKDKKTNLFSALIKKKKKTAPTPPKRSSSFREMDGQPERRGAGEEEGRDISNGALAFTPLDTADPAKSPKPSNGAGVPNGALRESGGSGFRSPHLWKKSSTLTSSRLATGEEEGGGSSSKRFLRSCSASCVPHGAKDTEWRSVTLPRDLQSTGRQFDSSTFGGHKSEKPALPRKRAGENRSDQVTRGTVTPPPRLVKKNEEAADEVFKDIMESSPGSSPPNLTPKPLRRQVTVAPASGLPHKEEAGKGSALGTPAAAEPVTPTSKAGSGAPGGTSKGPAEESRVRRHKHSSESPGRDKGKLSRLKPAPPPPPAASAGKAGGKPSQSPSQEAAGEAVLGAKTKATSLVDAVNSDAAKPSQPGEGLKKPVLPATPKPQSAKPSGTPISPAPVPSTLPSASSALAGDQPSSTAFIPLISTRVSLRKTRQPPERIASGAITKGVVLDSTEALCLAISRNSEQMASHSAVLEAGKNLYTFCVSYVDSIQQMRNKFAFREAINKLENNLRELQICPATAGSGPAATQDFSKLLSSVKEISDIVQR", "assay": "Binding affinity to human phosphorylated ABL1 F317I mutant (S229 to K512 residues) expressed in mammalian expression system assessed as residual binding level at 1 uM by Kinomescan method relative to control"}, "[2]": {"target": "Rho-associated protein kinase 2 (Homo sapiens) (UniProt O75116)", "assay": "Binding affinity to wild-type human partial length ROCK2 (M1 to T431 residues) expressed in mammalian expression system assessed as residual binding level at 1 uM by Kinomescan method relative to control"}, "[3]": {"test_system": "Tyrosine-protein kinase ABL1 (Homo sapiens), P00519 [F317L]", "sequence (P00519 whole entry F317L, the tested form may be a part)": "as the sequence (P00519 whole entry F317I, the tested form may be a part) above, with I317L counted along it", "assay": "Binding affinity to human non-phosphorylated ABL1 F317L mutant (S229 to K512 residues) expressed in mammalian expression system assessed as residual binding level at 1 uM by Kinomescan method relative to control"}, "[4]": {"test_system": "Epidermal growth factor receptor (Homo sapiens), P00533 [T790M]", "assay": "Binding affinity to human partial length EGFR T790M mutant (R669 to G1022 residues) expressed in mammalian expression system assessed as residual binding level at 1 uM by Kinomescan method relative to control"}, "[5]": {"target": "Non-receptor tyrosine-protein kinase TYK2 (Homo sapiens) (UniProt P29597)", "assay": "Binding affinity to wild-type human partial length TYK2 JH2 pseudokinase domain (G556 to D888 residues) expressed in mammalian expression system assessed as residual binding level at 1 uM by Kinomescan method relative to control"}, "[6]": {"target": "Serine/threonine-protein kinase Nek7 (Homo sapiens) (UniProt Q8TDX7)", "assay": "Binding affinity to wild-type human full length NEK7 (M1 to S302 residues) expressed in bacterial expression system assessed as residual binding level at 1 uM by Kinomescan method relative to control"}, "[7]": {"target": "Ephrin type-A receptor 6 (Homo sapiens) (UniProt Q9UF33)", "assay": "Binding affinity to wild-type human partial length EPHA6 (Y700 to E1046 residues) expressed in bacterial expression system assessed as residual binding level at 1 uM by Kinomescan method relative to control"}, "[8]": {"target": "Cyclin-dependent kinase 14 (Homo sapiens) (UniProt O94921)", "sequence (O94921 whole entry, the tested form may be a part)": "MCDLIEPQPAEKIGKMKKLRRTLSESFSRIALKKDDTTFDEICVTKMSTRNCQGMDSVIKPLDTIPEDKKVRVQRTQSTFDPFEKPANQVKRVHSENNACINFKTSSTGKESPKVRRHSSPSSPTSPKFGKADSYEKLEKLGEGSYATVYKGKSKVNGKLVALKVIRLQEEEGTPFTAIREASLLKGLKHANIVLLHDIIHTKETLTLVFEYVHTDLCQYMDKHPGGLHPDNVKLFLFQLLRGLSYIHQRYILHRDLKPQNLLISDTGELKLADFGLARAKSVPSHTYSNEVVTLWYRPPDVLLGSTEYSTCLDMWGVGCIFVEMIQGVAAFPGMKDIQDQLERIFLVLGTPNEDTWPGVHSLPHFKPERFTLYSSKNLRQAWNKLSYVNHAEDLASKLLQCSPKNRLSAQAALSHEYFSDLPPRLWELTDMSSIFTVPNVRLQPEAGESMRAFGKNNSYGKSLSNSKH", "assay": "Binding affinity to wild-type human full length PFTK1 (M1 to H451 residues) expressed in bacterial expression system assessed as residual binding level at 1 uM by Kinomescan method relative to control"}, "[9]": {"target": "Calcium/calmodulin-dependent protein kinase type 1 (Homo sapiens) (UniProt Q14012)", "sequence (Q14012 whole entry, looked up, the tested form may be a part)": "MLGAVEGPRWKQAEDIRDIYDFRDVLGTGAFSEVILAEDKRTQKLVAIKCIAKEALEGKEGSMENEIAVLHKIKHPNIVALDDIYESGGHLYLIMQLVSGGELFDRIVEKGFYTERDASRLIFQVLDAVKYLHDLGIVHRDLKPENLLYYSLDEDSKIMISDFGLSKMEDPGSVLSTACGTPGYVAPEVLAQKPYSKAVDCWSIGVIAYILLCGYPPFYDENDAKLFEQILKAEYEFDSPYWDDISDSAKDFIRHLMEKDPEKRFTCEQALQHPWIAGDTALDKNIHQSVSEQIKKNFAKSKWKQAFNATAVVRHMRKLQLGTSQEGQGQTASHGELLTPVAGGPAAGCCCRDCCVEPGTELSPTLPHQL", "assay": "Binding affinity to wild-type human full length CAMK1 (M1 to L370 residues) expressed in bacterial expression system assessed as residual binding level at 1 uM by Kinomescan method relative to control"}, "[10]": {"target": "Cyclin-dependent kinase 9 (Homo sapiens) (UniProt P50750)", "sequence (P50750 whole entry, the tested form may be a part)": "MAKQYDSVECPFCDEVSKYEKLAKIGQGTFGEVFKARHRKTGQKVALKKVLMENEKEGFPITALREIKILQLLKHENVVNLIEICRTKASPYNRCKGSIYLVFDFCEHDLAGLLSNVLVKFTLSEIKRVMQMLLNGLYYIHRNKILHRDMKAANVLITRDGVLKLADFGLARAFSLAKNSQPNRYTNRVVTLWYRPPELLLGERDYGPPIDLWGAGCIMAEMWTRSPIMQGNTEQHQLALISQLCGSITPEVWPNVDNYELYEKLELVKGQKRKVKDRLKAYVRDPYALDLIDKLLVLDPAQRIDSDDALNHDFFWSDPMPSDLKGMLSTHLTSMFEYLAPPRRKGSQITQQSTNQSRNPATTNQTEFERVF", "assay": "Binding affinity to wild-type human full length CDK9 (M1 to F372 residues) expressed in bacterial expression system assessed as residual binding level at 1 uM by Kinomescan method relative to control"}, "[11]": {"target": "Serine/threonine-protein kinase RIO1 (Homo sapiens) (UniProt Q9BRS2)", "assay": "Binding affinity to wild-type human full length RIOK1 (M1 to K568 residues) expressed in bacterial expression system assessed as residual binding level at 1 uM by Kinomescan method relative to control"}, "[12]": {"target": "Phosphatidylinositol 3-kinase C2 domain-containing subunit gamma (Homo sapiens) (UniProt O75747)", "assay": "Binding affinity to wild-type human partial length PIK3C2G (M1 to I1446 residues) expressed in mammalian expression system assessed as residual binding level at 1 uM by Kinomescan method relative to control"}, "[13]": {"target": "Ephrin type-A receptor 2 (Homo sapiens) (UniProt P29317)", "assay": "Binding affinity to wild-type human partial length EPHA2 (T593 to V891 residues) expressed in bacterial expression system assessed as residual binding level at 1 uM by Kinomescan method relative to control"}, "[14]": {"target": "Serine/threonine-protein kinase pim-2 (Homo sapiens) (UniProt Q9P1W9)", "sequence (Q9P1W9 whole entry, looked up, the tested form may be a part)": "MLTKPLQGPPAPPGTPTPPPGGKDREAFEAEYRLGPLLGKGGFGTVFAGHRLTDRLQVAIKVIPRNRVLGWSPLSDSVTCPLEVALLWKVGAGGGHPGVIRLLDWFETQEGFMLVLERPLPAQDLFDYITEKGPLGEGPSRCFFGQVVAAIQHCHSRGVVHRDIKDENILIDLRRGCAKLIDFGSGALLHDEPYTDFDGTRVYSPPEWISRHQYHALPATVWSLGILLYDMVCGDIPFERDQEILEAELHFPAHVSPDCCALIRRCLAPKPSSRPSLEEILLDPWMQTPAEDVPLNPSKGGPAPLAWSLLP", "assay": "Binding affinity to wild-type human partial length PIM2 (M1 to E291 residues) expressed in bacterial expression system assessed as residual binding level at 1 uM by Kinomescan method relative to control"}, "[15]": {"target": "Fibroblast growth factor receptor 4 (Homo sapiens) (UniProt P22455)", "sequence (P22455 22-802 limits assumed)": "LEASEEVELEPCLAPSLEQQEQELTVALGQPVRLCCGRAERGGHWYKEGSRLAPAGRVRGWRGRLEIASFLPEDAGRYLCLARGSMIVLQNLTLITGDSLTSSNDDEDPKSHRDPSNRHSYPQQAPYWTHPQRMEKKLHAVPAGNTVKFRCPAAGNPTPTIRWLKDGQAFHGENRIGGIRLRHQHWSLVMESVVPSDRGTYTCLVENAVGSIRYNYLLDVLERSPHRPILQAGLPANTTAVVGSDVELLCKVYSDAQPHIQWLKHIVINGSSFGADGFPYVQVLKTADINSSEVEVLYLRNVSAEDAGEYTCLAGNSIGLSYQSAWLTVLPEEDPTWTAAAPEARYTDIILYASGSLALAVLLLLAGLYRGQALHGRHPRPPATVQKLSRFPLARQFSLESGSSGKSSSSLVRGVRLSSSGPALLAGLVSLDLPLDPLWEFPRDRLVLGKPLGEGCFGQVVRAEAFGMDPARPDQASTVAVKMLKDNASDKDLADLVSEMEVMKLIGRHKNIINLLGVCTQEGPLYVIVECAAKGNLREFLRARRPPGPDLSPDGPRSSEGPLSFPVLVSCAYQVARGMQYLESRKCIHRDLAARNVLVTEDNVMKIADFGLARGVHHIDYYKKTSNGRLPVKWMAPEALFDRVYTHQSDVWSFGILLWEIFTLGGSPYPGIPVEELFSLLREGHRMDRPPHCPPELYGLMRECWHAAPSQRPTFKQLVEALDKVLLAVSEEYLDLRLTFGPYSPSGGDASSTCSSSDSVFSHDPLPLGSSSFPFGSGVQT", "assay": "Binding affinity to wild-type human partial length FGFR4 (G402 to E713 residues) expressed in bacterial expression system assessed as residual binding level at 1 uM by Kinomescan method relative to control"}, "[16]": {"target": "Tyrosine-protein kinase receptor Tie-1 (Homo sapiens) (UniProt P35590)", "assay": "Binding affinity to wild-type human partial length TIE1 (T819 to A1138 residues) expressed in bacterial expression system assessed as residual binding level at 1 uM by Kinomescan method relative to control"}, "[17]": {"target": "Platelet-derived growth factor receptor alpha (Homo sapiens) (UniProt P16234)", "assay": "Binding affinity to wild-type human partial length PDGFRA (V575 to D1002 residues) expressed in mammalian expression system assessed as residual binding level at 1 uM by Kinomescan method relative to control"}, "[18]": {"target": "Tyrosine-protein kinase Mer (Homo sapiens) (UniProt Q12866)", "assay": "Binding affinity to wild-type human partial length MERTK (R557 to L884 residues) expressed in bacterial expression system assessed as residual binding level at 1 uM by Kinomescan method relative to control"}, "[19]": {"target": "Ephrin type-B receptor 6 (Homo sapiens) (UniProt O15197)", "assay": "Binding affinity to wild-type human partial length EPHB6 (Q634 to P948 residues) expressed in mammalian expression system assessed as residual binding level at 1 uM by Kinomescan method relative to control"}, "[20]": {"target": "Mitogen-activated protein kinase kinase kinase 12 (Homo sapiens) (UniProt Q12852)", "assay": "Binding affinity to wild-type human full length DLK (M1 to P859 residues) expressed in mammalian expression system assessed as residual binding level at 1 uM by Kinomescan method relative to control"}, "[21]": {"test_system": "Receptor-type tyrosine-protein kinase FLT3 (Homo sapiens), P36888 [D835H]", "assay": "Binding affinity to human partial length FLT3 D835H mutant (V592 to Y969 residues) expressed in bacterial expression system assessed as residual binding level at 1 uM by Kinomescan method relative to control"}, "[22]": {"target": "Ribosomal protein S6 kinase alpha-1 (Homo sapiens) (UniProt Q15418)", "sequence (Q15418 whole entry, the tested form may be a part)": "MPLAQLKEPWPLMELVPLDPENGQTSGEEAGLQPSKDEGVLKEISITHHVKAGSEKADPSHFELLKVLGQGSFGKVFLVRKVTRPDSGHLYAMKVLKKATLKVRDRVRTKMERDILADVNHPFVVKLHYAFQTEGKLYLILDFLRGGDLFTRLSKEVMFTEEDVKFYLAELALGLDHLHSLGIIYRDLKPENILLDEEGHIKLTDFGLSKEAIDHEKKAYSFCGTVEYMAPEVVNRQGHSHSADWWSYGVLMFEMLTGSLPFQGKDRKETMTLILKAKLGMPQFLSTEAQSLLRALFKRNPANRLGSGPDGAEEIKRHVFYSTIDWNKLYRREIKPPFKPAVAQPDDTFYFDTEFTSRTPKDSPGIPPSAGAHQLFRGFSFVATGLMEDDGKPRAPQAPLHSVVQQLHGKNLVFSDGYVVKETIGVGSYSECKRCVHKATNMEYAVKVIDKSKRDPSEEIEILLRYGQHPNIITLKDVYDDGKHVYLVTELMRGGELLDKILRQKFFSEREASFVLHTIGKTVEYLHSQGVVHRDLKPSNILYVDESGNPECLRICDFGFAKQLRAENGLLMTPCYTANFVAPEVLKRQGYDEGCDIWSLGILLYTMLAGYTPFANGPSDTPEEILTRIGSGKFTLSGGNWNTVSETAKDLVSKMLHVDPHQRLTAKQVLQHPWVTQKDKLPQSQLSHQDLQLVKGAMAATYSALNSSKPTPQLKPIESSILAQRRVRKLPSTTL", "assay": "Binding affinity to wild-type human partial length N-terminal RSK1 Kinase domain 1 (M1 to E388 residues) expressed in bacterial expression system assessed as residual binding level at 1 uM by Kinomescan method relative to control"}, "[23]": {"target": "Ribosomal protein S6 kinase alpha-2 (Homo sapiens) (UniProt Q15349)", "sequence (Q15349 whole entry, the tested form may be a part)": "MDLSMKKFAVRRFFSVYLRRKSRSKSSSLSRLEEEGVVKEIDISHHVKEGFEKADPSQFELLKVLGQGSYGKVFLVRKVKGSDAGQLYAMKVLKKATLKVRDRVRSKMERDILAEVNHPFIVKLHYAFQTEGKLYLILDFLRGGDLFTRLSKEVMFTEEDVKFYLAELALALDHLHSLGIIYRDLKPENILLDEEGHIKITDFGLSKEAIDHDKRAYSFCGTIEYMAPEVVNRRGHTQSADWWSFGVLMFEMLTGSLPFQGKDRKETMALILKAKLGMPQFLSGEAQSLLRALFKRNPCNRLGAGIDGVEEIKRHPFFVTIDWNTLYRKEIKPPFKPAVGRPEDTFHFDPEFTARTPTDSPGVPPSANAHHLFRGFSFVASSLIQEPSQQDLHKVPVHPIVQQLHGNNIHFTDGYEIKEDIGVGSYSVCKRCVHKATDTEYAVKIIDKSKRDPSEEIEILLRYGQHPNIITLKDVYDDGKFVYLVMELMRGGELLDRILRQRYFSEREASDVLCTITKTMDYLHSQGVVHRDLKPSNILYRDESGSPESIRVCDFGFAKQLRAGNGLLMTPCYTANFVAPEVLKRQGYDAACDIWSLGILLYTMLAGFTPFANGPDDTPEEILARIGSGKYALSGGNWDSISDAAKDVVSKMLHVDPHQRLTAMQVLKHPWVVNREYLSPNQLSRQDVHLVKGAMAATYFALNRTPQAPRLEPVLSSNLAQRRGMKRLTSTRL", "assay": "Binding affinity to wild-type human partial length N-terminal RSK3 kinase domain 1 (M1 to Q385 residues) expressed in bacterial expression system assessed as residual binding level at 1 uM by Kinomescan method relative to control"}, "[24]": {"target": "Ribosomal protein S6 kinase alpha-1 (Homo sapiens) (UniProt Q15418)", "assay": "Binding affinity to wild-type human partial length C-terminal RSK1 kinase domain 2 (P360 to L681 residues) expressed in bacterial expression system assessed as residual binding level at 1 uM by Kinomescan method relative to control"}}, "data": [{"smiles": "CC(C)Nc1sc(C(=O)c2ccc(Cl)s2)c(N)c1C#N", "values": [{"measurement": "Activity", "setting": "[1]", "result": 100, "unit": "%"}, {"measurement": "Activity", "setting": "[2]", "result": 100, "unit": "%"}, {"measurement": "Activity", "setting": "[3]", "result": 100, "unit": "%"}, {"measurement": "Activity", "setting": "[4]", "result": 66, "unit": "%"}, {"measurement": "Activity", "setting": "[5]", "result": 100, "unit": "%"}, {"measurement": "Activity", "setting": "[6]", "result": 84, "unit": "%"}, {"measurement": "Activity", "setting": "[7]", "result": 86, "unit": "%"}, {"measurement": "Activity", "setting": "[8]", "result": 93, "unit": "%"}, {"measurement": "Activity", "setting": "[9]", "result": 91, "unit": "%"}, {"measurement": "Activity", "setting": "[10]", "result": 83, "unit": "%"}, {"measurement": "Activity", "setting": "[11]", "result": 74, "unit": "%"}, {"measurement": "Activity", "setting": "[12]", "result": 84, "unit": "%"}, {"measurement": "Activity", "setting": "[13]", "result": 100, "unit": "%"}, {"measurement": "Activity", "setting": "[14]", "result": 100, "unit": "%"}, {"measurement": "Activity", "setting": "[15]", "result": 74, "unit": "%"}, {"measurement": "Activity", "setting": "[16]", "result": 69, "unit": "%"}, {"measurement": "Activity", "setting": "[17]", "result": 82, "unit": "%"}, {"measurement": "Activity", "setting": "[18]", "result": 100, "unit": "%"}, {"measurement": "Activity", "setting": "[19]", "result": 100, "unit": "%"}, {"measurement": "Activity", "setting": "[20]", "result": 99, "unit": "%"}, {"measurement": "Activity", "setting": "[21]", "result": 60, "unit": "%"}, {"measurement": "Activity", "setting": "[22]", "result": 84, "unit": "%"}, {"measurement": "Activity", "setting": "[23]", "result": 54, "unit": "%"}, {"measurement": "Activity", "setting": "[24]", "result": 85, "unit": "%"}]}]}
